# Data taken from ChEMBL document CHEMBL1201862, “PubChem BioAssay data set” (2004).
# Active and inactive are the calls of the source.
# Tests used:
# [1] = viability of HCT116 lacking mutant beta-catenin – cell-based, human colon tumor, dose response (AID 1045); type: functional;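 further: HCT116 colon tumor cells with beta catenin knocked out; cells exposed to compound for 60 hours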
# [2] = viability of PTEN-deleted HCT116 cells – cell-based, HCT116 PTEN knockout, dose response (AID 1047); type: functional;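 further: HCT116 colon tumor cells with PTEN knocked out; cells exposed to compound for 60 hours before readout; potency for loss of cell viability measured by luminescence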
# INS1 = assay: INS-1E survival protection against cytokine death – cell-based, luminescence, retest, dose response (AID 449756); type: functional; settings: Rattus norvegicus;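 further: cell death triggered by IL-1 beta plus TNF-alpha plus IFN-gamma mixture; protective hits raise ATP signal compared with cytokine alone wells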
# Large T antigen = Large T antigen (Simian virus 40, UniProt P03070); type: functional, Betapolyomavirus macacae;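 further: Confirmatory-stage PubChem screen for compounds that inhibit SV40 T antigen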
# cells [3] = type: functional, cell-based
# cells [4] = type: functional, cell-based; remark: listed apart in the source
# [5] = biological target: T1, Carboxy-terminal domain RNA polymerase II polypeptide A small phosphatase 1 (Homo sapiens, UniProt Q9GZU7); assay: CTDSP1 inhibitors, concentration-response, biochemical, absorbance readout, ultra-high-throughput screen actives (AID 540297); type: functional
# T1 sequence (Q9GZU7 whole entry): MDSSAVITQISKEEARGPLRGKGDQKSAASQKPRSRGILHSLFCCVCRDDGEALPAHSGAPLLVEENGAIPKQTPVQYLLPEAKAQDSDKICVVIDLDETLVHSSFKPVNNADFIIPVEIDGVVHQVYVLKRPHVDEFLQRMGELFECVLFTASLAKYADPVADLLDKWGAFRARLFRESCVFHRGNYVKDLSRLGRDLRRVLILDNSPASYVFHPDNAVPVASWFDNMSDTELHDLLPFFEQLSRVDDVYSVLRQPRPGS
# Cytochrome P450 2D6 = Cytochrome P450 2D6 (Homo sapiens, UniProt P10635);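 further: CYP2D6 member of a cytochrome P450 panel assay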
# [6] = biological target: T2, Rac GTPase-activating protein 1 (Homo sapiens, UniProt Q9H0H5); assay: blockers of MgcRacGAP-driven Rac1 GTP hydrolysis – biochemical, ADP Hunter fluorescence, primary and confirmatory, confirmation (AID 624330); type: functional
# T2 sequence (Q9H0H5 whole entry): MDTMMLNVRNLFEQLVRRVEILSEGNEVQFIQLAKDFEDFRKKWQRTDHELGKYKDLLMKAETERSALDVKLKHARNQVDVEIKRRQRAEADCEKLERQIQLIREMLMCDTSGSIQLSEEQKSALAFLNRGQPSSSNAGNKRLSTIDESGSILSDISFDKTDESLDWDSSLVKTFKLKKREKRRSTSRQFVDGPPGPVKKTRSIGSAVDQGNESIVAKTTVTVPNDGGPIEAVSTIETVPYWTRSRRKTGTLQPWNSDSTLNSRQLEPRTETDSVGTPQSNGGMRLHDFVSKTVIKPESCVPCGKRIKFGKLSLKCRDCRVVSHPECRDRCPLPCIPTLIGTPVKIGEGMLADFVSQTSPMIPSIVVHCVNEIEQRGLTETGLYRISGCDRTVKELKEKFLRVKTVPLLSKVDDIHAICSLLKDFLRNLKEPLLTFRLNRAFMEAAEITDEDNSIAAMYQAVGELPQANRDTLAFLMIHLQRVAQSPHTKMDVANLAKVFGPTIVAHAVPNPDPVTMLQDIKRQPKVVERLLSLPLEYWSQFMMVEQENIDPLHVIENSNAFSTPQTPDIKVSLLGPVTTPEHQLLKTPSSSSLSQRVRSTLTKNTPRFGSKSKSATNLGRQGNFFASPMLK
# [7] = biological target: T3, Polyadenylate-binding protein 1 (Homo sapiens, UniProt P11940); assay: MLLE domain peptide-binding blockers, IC50 – biochemical, fluorescence polarization, FITC-PAM2 peptide, dose response (AID 602259); type: functional; settings: read-out: IC50_Mean
# [8] = biological target: T3, Polyadenylate-binding protein 1; assay: MLLE binding blockers, Cy5 peptide tracer – biochemical, fluorescence polarization, Cy5-PAM2 peptide, secondary, miRNA deadenylation inhibitor project, dose response (AID 602260); type: functional; settings: read-out: IC50_Mean
# [9] = HIV-1 AD8 envelope cell-cell fusion blockers – cherry-pick, dose response (AID 652062); type: functional, cell-based;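 further: luciferase signal from cell-cell fusion driven by HIV-1 clade B AD8 Env; potency is for inhibitors of fusion seen as a drop in luminescence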
# [10] = off-target signal loss in HeLa-CEM21 co-culture – HeLa F-luc CTL cells, cherry-picked, counter-screen for HIV-1 Env fusion inhibitor project, dose response (AID 652040); type: functional, cell-based;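 further: potency for signal decrease marking cytotoxic or nonspecific inhibition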
# [11] = viability of uninfected HEp-2 cells – cell-based, HTS, cytotoxicity control for RSV inhibitor project, dose response (AID 2410); type: functional; settings: human respiratory syncytial virus
# [12] = P. falciparum Dd2 growth inhibitors, dose response, SYBR Green, cherry-picked samples (AID 1159567); type: functional, cell-based
# Large T antigen, sequence (P03070 whole entry): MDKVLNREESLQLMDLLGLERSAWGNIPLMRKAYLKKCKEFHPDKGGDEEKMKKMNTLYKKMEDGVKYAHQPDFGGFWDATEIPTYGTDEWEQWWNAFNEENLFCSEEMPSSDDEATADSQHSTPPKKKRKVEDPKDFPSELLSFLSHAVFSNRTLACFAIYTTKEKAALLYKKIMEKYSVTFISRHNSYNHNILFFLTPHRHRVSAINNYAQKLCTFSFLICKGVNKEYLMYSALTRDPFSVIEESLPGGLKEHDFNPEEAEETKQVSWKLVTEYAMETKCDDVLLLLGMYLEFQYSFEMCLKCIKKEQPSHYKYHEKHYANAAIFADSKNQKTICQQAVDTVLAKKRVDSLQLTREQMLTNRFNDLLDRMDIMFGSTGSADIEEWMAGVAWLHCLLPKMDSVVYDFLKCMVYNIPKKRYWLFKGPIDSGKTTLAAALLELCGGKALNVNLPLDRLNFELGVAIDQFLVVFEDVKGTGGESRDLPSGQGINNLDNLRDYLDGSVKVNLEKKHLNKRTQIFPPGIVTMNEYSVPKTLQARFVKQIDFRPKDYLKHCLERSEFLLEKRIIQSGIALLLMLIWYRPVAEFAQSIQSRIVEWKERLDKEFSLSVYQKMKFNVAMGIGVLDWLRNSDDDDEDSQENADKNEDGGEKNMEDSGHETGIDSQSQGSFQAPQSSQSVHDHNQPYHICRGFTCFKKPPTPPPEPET
# T3 sequence (P11940 whole entry, the tested form may be a part): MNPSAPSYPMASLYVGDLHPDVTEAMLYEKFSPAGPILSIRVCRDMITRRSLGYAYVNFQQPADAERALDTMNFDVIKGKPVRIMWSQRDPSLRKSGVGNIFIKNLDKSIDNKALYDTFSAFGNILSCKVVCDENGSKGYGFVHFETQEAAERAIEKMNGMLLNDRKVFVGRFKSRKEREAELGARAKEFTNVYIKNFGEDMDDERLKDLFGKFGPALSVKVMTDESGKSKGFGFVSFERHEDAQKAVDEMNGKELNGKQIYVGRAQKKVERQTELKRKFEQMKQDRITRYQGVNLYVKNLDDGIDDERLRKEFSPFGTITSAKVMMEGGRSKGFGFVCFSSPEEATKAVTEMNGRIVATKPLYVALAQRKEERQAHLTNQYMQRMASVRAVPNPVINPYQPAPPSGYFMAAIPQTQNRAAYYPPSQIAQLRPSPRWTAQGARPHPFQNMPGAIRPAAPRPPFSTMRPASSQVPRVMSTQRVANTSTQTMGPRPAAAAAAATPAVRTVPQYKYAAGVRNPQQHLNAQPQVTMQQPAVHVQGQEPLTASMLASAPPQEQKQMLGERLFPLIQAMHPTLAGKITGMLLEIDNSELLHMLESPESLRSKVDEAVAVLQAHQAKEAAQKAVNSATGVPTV
# Cytochrome P450 2D6, sequence (P10635 whole entry): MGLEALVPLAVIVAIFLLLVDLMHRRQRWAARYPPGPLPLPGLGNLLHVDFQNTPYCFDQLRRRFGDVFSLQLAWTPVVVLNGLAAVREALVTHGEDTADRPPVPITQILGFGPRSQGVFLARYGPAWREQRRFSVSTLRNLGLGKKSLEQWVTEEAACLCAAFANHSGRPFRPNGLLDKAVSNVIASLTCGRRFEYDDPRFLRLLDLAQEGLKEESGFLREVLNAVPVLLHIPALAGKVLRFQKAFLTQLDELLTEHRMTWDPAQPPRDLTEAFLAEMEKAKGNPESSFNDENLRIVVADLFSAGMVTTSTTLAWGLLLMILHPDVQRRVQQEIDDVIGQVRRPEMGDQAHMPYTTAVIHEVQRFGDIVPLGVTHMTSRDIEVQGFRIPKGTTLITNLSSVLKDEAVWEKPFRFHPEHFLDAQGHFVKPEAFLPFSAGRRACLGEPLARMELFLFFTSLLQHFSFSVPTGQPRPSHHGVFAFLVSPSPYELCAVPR
smiles,measurement,setting,value
N=c1c2c(-c3ccccc3)c(-c3ccccc3)n(Cc3ccco3)c2ncn1CCO,EC50,[1],1.27 µM (active)
same,EC50,[2],1.15 µM (active)
CCn1c(SCC(=O)Nc2cc(C)on2)nc2sc3c(c2c1=O)CCCC3,AC50,INS1,8.67 µM (active)
same,EC50,[1],13.2 µM (active)
same,EC50,[2],6.49 µM (active)
Cc1cccc(N2C(=O)/C(=C/Nc3ccc(O)cc3)c3ccccc3C2=O)n1,IC50,Large T antigen,7.67 µM (active)
CC(C(=O)Nc1ccccc1-c1ccccc1)N1CCN(C(=O)c2ccccc2)CC1 (configuration not stated),EC50,cells [3],> 350 µM (not active)
same,EC50,cells [4],> 350 µM (not active)
N#CC1(NC(=O)COc2ccccc2[N+](=O)[O-])CCCCC1,IC50,[5],18.7 µM (active)
CC(C)NC[C@@H](O)COc1ccccc1-n1cccc1,AC50,Cytochrome P450 2D6,31.6 µM (inconclusive)
Cc1ccc(C2C=NN(c3ccccc3)C2=O)cc1 (configuration not stated),IC50,[6],115 µM (active)
same,IC50,Large T antigen,31 µM (active)
Cc1ccc(NC(=O)CSc2ncc3ccccn23)cc1,EC50,cells [3],> 350 µM (not active)
same,EC50,cells [4],41.4 µM (active)
CC(=O)Nc1ccc(SC[C@H](Cc2ccccc2)N2CC[C@@H](O)CCC2=O)cc1,IC50,[7],> 66 µM (inactive)
same,IC50,[8],> 66 µM (inactive)
Oc1c(N=Nc2nn[nH]n2)ccc2ccccc12,IC50,[7],38.9 µM (inactive)
same,IC50,[8],> 66 µM (inactive)
Nc1ncnc(O)c1/N=C/c1ccccc1,IC50,Large T antigen,28.6 µM (active)
Cc1ccc(S(=O)(=O)N(C)C[C@@H]2Oc3ccc(NS(=O)(=O)c4ccc(Cl)cc4)cc3C(=O)N([C@@H](C)CO)C[C@H]2C)cc1,AC50,[9],3.2 µM (active)
CC(=O)c1ccc([C@H]2C[C@@]34CN(C(=O)OC(C)(C)C)S(=O)(=O)[C@H]3C[C@H]2O4)cc1,AC50,[10],36.6 µM (active)
CC/N=c1\scc(C)n1/N=C/c1cc(Br)c(O)c(OC)c1,IC50,[6],25.2 µM (active)
same,IC50,Large T antigen,8.55 µM (active)
same,CC50,[11],15.6 µM (active)
CCOC(=O)/C(=N\Nc1ccc(F)cc1)C(=O)c1ccc([N+](=O)[O-])cc1,EC50,cells [3],> 350 µM (not active)
same,EC50,cells [4],> 350 µM (not active)
C[C@@H]1CN([C@H](C)CO)S(=O)(=O)c2ccc(C#C[C@@H](C)O)cc2O[C@H]1CN(C)C(=O)Nc1ccccc1,AC50,[12],13 µM (active)
COc1ccc(NC(=O)Nc2ccc3c(c2)CC(=O)N([C@H](C)CO)C[C@H](C)[C@@H](CN(C)CC2CCCCC2)O3)cc1,AC50,[12],4.53 µM (active)
COc1ccc(-c2ccc([C@@H]3[C@H]4CN(C(=O)NC(C)C)CC(=O)N4[C@H]3CO)cc2)cc1,AC50,[12],10 µM (active)
COc1ccccc1-c1ccccc1[C@H]1[C@H](C#N)N(C(=O)C2CCC2)[C@H]1CO,AC50,[12],12 µM (active)
COc1ccc(NC(=O)Nc2ccc3c(c2)[C@H]2C[C@H](CC(=O)N4CCc5ccccc5C4)O[C@H](CO)[C@H]2O3)cc1,AC50,[12],7.78 µM (active)
[H]/N=C(/N)N/C(=N/[H])NCCc1ccccc1 [PHENFORMIN],AC50,Cytochrome P450 2D6,10 µM (inconclusive)
